Several values for one entry are separate records, joined by “and”; a condition that tells them apart may be missing. Equal values may be shown once. Toxic doses and inconclusive results are not listed.
Tested on: CD2F1 mice, L1210 leukemia ip, survival T/C
Assay: NCI In Vivo Anticancer Drug Screen. Data for tumor model L1210 Leukemia (intraperitoneal) in CD2F1 (CDF1) mice
Details: higher = longer survival
How it was run: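 Mice carrying a transplanted tumor received test compound or vehicle alone. The value is the measurement in the treated group divided by that in the vehicle-treated control group.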

[1] = endpoint: mean survival time, dose: 100.0 mg/kg/injection, schedule: Q01DX009 (ip), vehicle: saline with Tween-80
[2] = endpoint: mean survival time, dose: 100.0 mg/kg/injection, schedule: Q04DX003 (ip), vehicle: saline with Tween-80
[3] = endpoint: mean survival time, dose: 200.0 mg/kg/injection, schedule: Q01DX009 (ip), vehicle: saline with Tween-80
[4] = endpoint: mean survival time, dose: 200.0 mg/kg/injection, schedule: Q04DX003 (ip), vehicle: saline with Tween-80
[5] = endpoint: mean survival time, dose: 400.0 mg/kg/injection, schedule: Q01DX009 (ip), vehicle: saline with Tween-80
[6] = endpoint: mean survival time, dose: 400.0 mg/kg/injection, schedule: Q04DX003 (ip), vehicle: saline with Tween-80
[7] = endpoint: mean survival time, dose: 100.0 mg/kg/injection, schedule: Q01DX009 (ip), vehicle: saline
[8] = endpoint: mean survival time, dose: 100.0 mg/kg/injection, schedule: Q01DX001 (ip), vehicle: saline with Tween-80
[9] = endpoint: mean survival time, dose: 200.0 mg/kg/injection, schedule: Q01DX001 (ip), vehicle: saline with Tween-80
[10] = endpoint: mean survival time, dose: 400.0 mg/kg/injection, schedule: Q01DX001 (ip), vehicle: saline with Tween-80
[11] = endpoint: mean survival time, dose: 100.0 mg/kg/injection, schedule: Q04DX003 (ip), vehicle: saline
[12] = endpoint: mean survival time, dose: 200.0 mg/kg/injection, schedule: Q04DX003 (ip), vehicle: saline

In the case of Nc1nc2c(ncn2-c2ccc(OCCNC(=O)Nc3cc(S(=O)(=O)F)ccc3Cl)cc2)c(=O)[nH]1 (tested in a mixture with another compound), the T/C (endpoint: mean survival time, dose: 75.0 mg/kg/injection, schedule: Q01DX001 (ip), vehicle: saline with Tween-80) is reported as 92 % of control and the T/C (endpoint: mean survival time, dose: 150.0 mg/kg/injection, schedule: Q01DX001 (ip), vehicle: saline with Tween-80) is reported as 95 % of control.

With COc1ccc(Cl)cc1C(c1cc(Cl)ccc1OC)C(Cl)(Cl)Cl the T/C [1] was 97 % of control, the T/C [2] was 103 % of control and the T/C [3] was 109 % of control. For the same compound, the T/C [4] was 103 % of control, the T/C [5] was 104 % of control and the T/C [6] was 101 % of control.

For CCOC(=O)Nc1c(C)noc1NC(C)=O, the T/C [1] was 95 % of control, the T/C [2] was 94 % of control and the T/C [3] was 95 % of control. For the same compound, the T/C [4] was 94 % of control, the T/C [5] was 104 % of control and the T/C [6] was 94 % of control.

In the case of O=c1[nH]c(-c2ccccc2)nc(-c2ccccc2)c1CCO, the T/C [2] is reported as 95 % of control, the T/C [4] is reported as 91 % of control and the T/C [6] is reported as 106 % of control.

For Nc1nc2c(c(=O)[nH]1)CC(=O)N2, the T/C (endpoint: median survival time, dose: 50.0 mg/kg/injection, schedule: Q01DX005 (ip), vehicle: saline) was 98 % of control, the T/C (endpoint: median survival time, dose: 100.0 mg/kg/injection, schedule: Q01DX005 (ip), vehicle: saline) was 100 % of control and the T/C (endpoint: median survival time, dose: 200.0 mg/kg/injection, schedule: Q01DX005 (ip), vehicle: saline) was 104 % of control.

For CCOc1ccc2c(O)csc2c1, the T/C [2] was 90 % of control, the T/C [4] was 91 % of control and the T/C [6] was 91 % of control.

In the case of NC1=C(Cl)C(=O)c2ccccc2C1=O, the T/C [2] is reported as 102 % of control.

For O=CNc1cccc2ccc3cc4ccccc4cc3c12, the T/C (endpoint: mean survival time, dose: 50.0 mg/kg/injection, schedule: Q01DX009 (ip), vehicle: saline with Tween-80) was 90 % of control, the T/C [1] was 88 % of control and the T/C [2] was 94 % of control. For the same compound, the T/C [3] was 93 % of control and the T/C [4] was 88 % of control.

For O=C(O)C1C2OC(C(Br)C2Br)C1C(=O)O (stereo not given), the T/C (endpoint: mean survival time, dose: 50.0 mg/kg/injection, schedule: Q01DX009 (ip), vehicle: saline) was 102 % of control and the T/C [7] was 104 % of control.

With c1ccc2c(c1)sc1[n+]2CCS1 the T/C (endpoint: mean survival time, dose: 75.0 mg/kg/injection, schedule: Q01DX001 (ip), vehicle: saline) was 113 % of control.

For O=C([O][Sb]([O]C(=O)C(Cl)Cl)([c]1ccccc1)([c]1ccccc1)[c]1ccccc1)C(Cl)Cl, the T/C [2] was 92 % of control and the T/C [4] was 88 % of control.

With COc1cccc2c1C(=O)c1c(O)c3c(c(O)c1C2=O)C[C@@](O)(/C(C)=N/NC(=O)c1ccc(Cl)cc1)C[C@@H]3OC1CC(N)C(O)C(C)O1 (stereo not given in full) the T/C (endpoint: mean survival time, dose: 0.5 mg/kg/injection, schedule: Q01DX009 (ip), vehicle: saline) was 96 % of control, the T/C (endpoint: mean survival time, dose: 0.5 mg/kg/injection, schedule: Q01DX009 (ip), vehicle: suspension in saline) was 110 % of control and the T/C (endpoint: mean survival time, dose: 1.0 mg/kg/injection, schedule: Q01DX009 (ip), vehicle: suspension in saline) was 115 % of control. The T/C (endpoint: mean survival time, dose: 2.0 mg/kg/injection, schedule: Q01DX009 (ip), vehicle: saline) was 122 % of control, the T/C (endpoint: mean survival time, dose: 2.0 mg/kg/injection, schedule: Q01DX009 (ip), vehicle: suspension in saline) was 118 % of control and the T/C (endpoint: mean survival time, dose: 16.0 mg/kg/injection, schedule: Q01DX009 (ip), vehicle: saline) was 108 % of control.

COc1ccc2[nH]c3ccc4cc[n+](CCN5CCC(C6CCN(CC[n+]7ccc8ccc9[nH]c%10ccc(OC)cc%10c9c8c7)CC6)CC5)cc4c3c2c1 was tested, and the T/C (endpoint: median survival time, dose: 8.0 mg/kg/injection, schedule: Q01DX009 (ip), vehicle: water) was 172 % of control and 246 % of control, the T/C (endpoint: median survival time, dose: 16.0 mg/kg/injection, schedule: Q01DX009 (ip), vehicle: water) was 160 % of control and 185 % of control and the T/C (endpoint: median survival time, dose: 16.25 mg/kg/injection, schedule: Q01DX009 (ip), vehicle: water) was 172 % of control. For the same compound, the T/C (endpoint: median survival time, dose: 32.0 mg/kg/injection, schedule: Q01DX009 (ip), vehicle: water) was 119 % of control, the T/C (endpoint: median survival time, dose: 32.5 mg/kg/injection, schedule: Q01DX009 (ip), vehicle: water) was 197 % of control and the T/C (endpoint: median survival time, dose: 200.0 mg/kg/injection, schedule: Q01DX009 (ip), vehicle: Klucel (hydroxypropylcellulose) (HPC)) was 91 % of control and 102 % of control.

With CC(=O)C1C(c2ccccc2)=C(c2ccccc2)c2ccccc21 (stereo not given) the T/C [8] was 88 % of control, the T/C [9] was 92 % of control and the T/C [10] was 92 % of control.

O=C(Nc1ccc2c3c(cccc13)CC2)c1ccccc1 was tested, and the T/C [2] was 95 % of control, the T/C [4] was 97 % of control and the T/C [6] was 92 % of control.

In the case of CCCCCCCCCC(=O)NCC[N+](C)(CC)CC, the T/C (endpoint: mean survival time, dose: 5.0 mg/kg/injection, schedule: Q01DX001 (ip), vehicle: saline) is reported as 102 % of control, the T/C (endpoint: mean survival time, dose: 10.0 mg/kg/injection, schedule: Q01DX001 (ip), vehicle: saline) is reported as 107 % of control and the T/C (endpoint: mean survival time, dose: 20.0 mg/kg/injection, schedule: Q01DX001 (ip), vehicle: saline) is reported as 100 % of control. For the same compound, the T/C (endpoint: mean survival time, dose: 40.0 mg/kg/injection, schedule: Q01DX001 (ip), vehicle: saline) was 105 % of control.

For CCC(CCC(C)C1CCC2C3CC=C4CC(I)CCC4(C)C3CCC12C)C(C)C (stereo not given), the T/C [8] was 90 % of control, the T/C [9] was 90 % of control and the T/C [10] was 94 % of control.

In the case of COC1/C=C\C=C(/C)C(=O)NC2=CC(=O)C=C(C2=O)C(OC)C(C)CC(OC)C(OC)C(C)/C=C(/C)C1OC(N)=O (stereo not given), the T/C (endpoint: mean survival time, dose: 0.18 mg/kg/injection, schedule: Q01DX009 (ip), vehicle: Klucel (hydroxypropylcellulose) (HPC)) is reported as 108 % of control, the T/C (endpoint: mean survival time, dose: 0.37 mg/kg/injection, schedule: Q01DX009 (ip), vehicle: Klucel (hydroxypropylcellulose) (HPC)) is reported as 107 % of control and the T/C (endpoint: mean survival time, dose: 0.75 mg/kg/injection, schedule: Q01DX009 (ip), vehicle: Klucel (hydroxypropylcellulose) (HPC)) is reported as 120 % of control and 98 % of control. For the same compound, the T/C (endpoint: mean survival time, dose: 1.5 mg/kg/injection, schedule: Q01DX009 (ip), vehicle: Klucel (hydroxypropylcellulose) (HPC)) was 93 % of control and 103 % of control and the T/C (endpoint: mean survival time, dose: 3.0 mg/kg/injection, schedule: Q01DX009 (ip), vehicle: Klucel (hydroxypropylcellulose) (HPC)) was 95 % of control and 105 % of control.

In the case of Cc1ncc(CO)n1C, the T/C (endpoint: mean survival time, dose: 50.0 mg/kg/injection, schedule: Q01DX009 (ip), vehicle: Klucel (hydroxypropylcellulose) (HPC)) is reported as 94 % of control, the T/C (endpoint: mean survival time, dose: 100.0 mg/kg/injection, schedule: Q01DX009 (ip), vehicle: Klucel (hydroxypropylcellulose) (HPC)) is reported as 105 % of control and the T/C (endpoint: mean survival time, dose: 200.0 mg/kg/injection, schedule: Q01DX009 (ip), vehicle: Klucel (hydroxypropylcellulose) (HPC)) is reported as 105 % of control.

For Nc1ccc2ccc(O)cc2c1, the T/C [7] was 97 % of control, the T/C [11] was 103 % of control and the T/C [12] was 108 % of control.

For CO/N=C/C1OC(n2ccc(=O)[nH]c2=O)C2OC(C)(C)OC12 (stereo not given), the T/C (endpoint: median survival time, dose: 12.5 mg/kg/injection, schedule: Q01DX005 (ip), vehicle: Klucel (hydroxypropylcellulose) (HPC)) was 100 % of control, the T/C (endpoint: median survival time, dose: 25.0 mg/kg/injection, schedule: Q01DX005 (ip), vehicle: Klucel (hydroxypropylcellulose) (HPC)) was 110 % of control and the T/C (endpoint: median survival time, dose: 50.0 mg/kg/injection, schedule: Q01DX005 (ip), vehicle: Klucel (hydroxypropylcellulose) (HPC)) was 107 % of control. The T/C (endpoint: median survival time, dose: 100.0 mg/kg/injection, schedule: Q01DX005 (ip), vehicle: Klucel (hydroxypropylcellulose) (HPC)) was 101 % of control.

CC(C)NC(=O)CCn1c(=O)c2ccccc2c(=O)n1C was tested, and the T/C (endpoint: mean survival time, dose: 25.0 mg/kg/injection, schedule: Q04DX003 (ip), vehicle: saline) was 98 % of control, the T/C (endpoint: mean survival time, dose: 50.0 mg/kg/injection, schedule: Q04DX003 (ip), vehicle: saline) was 98 % of control and the T/C [11] was 96 % of control. The T/C [12] was 106 % of control and the T/C (endpoint: mean survival time, dose: 400.0 mg/kg/injection, schedule: Q04DX003 (ip), vehicle: saline) was 101 % of control.

With C1=CC2OC1c1cc3ccccc3cc12 the T/C (endpoint: mean survival time, dose: 100.0 mg/kg/injection, schedule: Q04DX003 (ip), vehicle: other) was 121 % of control and the T/C (endpoint: mean survival time, dose: 200.0 mg/kg/injection, schedule: Q04DX003 (ip), vehicle: other) was 105 % of control.

O=P1(N(CCCl)CCCl)NCCC2(O1)C1CC3CC(C1)CC2C3 (stereo not given) was tested, and the T/C (endpoint: mean survival time, dose: 15.6 mg/kg/injection, schedule: Q01DX001 (ip), vehicle: distilled water + Tween-80) was 97 % of control, the T/C (endpoint: mean survival time, dose: 31.3 mg/kg/injection, schedule: Q01DX001 (ip), vehicle: distilled water + Tween-80) was 96 % of control and the T/C (endpoint: mean survival time, dose: 62.5 mg/kg/injection, schedule: Q01DX001 (ip), vehicle: distilled water + Tween-80) was 99 % of control. The T/C (endpoint: mean survival time, dose: 125.0 mg/kg/injection, schedule: Q01DX001 (ip), vehicle: distilled water + Tween-80) was 86 % of control and the T/C (endpoint: mean survival time, dose: 500.0 mg/kg/injection, schedule: Q01DX001 (ip), vehicle: distilled water + Tween-80) was 86 % of control.

CSc1nc(NN)c2cnn(C3OC(CO)C(O)C3O)c2n1 (stereo not given) was tested, and the T/C (endpoint: median survival time, dose: 11.3 mg/kg/injection, schedule: Q01DX005 (ip), vehicle: saline with Tween-80) was 107 % of control, the T/C (endpoint: median survival time, dose: 22.5 mg/kg/injection, schedule: Q01DX005 (ip), vehicle: saline with Tween-80) was 104 % of control and the T/C (endpoint: median survival time, dose: 45.0 mg/kg/injection, schedule: Q01DX005 (ip), vehicle: saline with Tween-80) was 102 % of control. The T/C (endpoint: median survival time, dose: 90.0 mg/kg/injection, schedule: Q01DX005 (ip), vehicle: saline with Tween-80) was 105 % of control.

Source: PubChem BioAssay AID256 (DTP/NCI, 2004)
